Results taken from patent US12404289B2 (Gilead Sciences, Inc., priority 2020, dated 2025).

What follows are compounds tested on Respiratory syncytial virus (RSV) strain A2 (assay: Hep-2 RSV2 384-well assay (EC50-HEP2-384)). Settings: HEp-2 cells, RSV A2, MOI=4, 4 days, Table 3.
Type: cell-based
Work on `C[C@H](NP(=O)(OC[C@H]1O[C@@](C#N)(c2ccc3c(N)ncnn23)[C@H](O)[C@@H]1O)Oc1ccc(C(C)(C)C)cc1)C(=O)OC1CC2(CCCC2)C1` (stereo partly drawn) [Example 97b, Spiro[3.4]octan-2-yl ((((2R,3S,4R,5R)-5-(4-aminopyrrolo[2,1-f][1,2,4]triazin-7-yl)-5-cyano-3,4-dihydroxytetrahydrofuran-2-yl)methoxy)(4-(tert-butyl)phenoxy)phosphoryl)-L-alaninate] yielded an EC50 of 106 nM.
`CC(=O)O[C@H]1[C@@H](OC(C)=O)[C@](C#N)(c2ccc3c(N)ncnn23)O[C@@H]1COP(=O)(N[C@@H](C)C(=O)OC1CC2(CCCC2)C1)Oc1ccc(C(C)(C)C)cc1` (stereo partly drawn) [Example 98b, (2R,3R,4R,5R)-2-(4-aminopyrrolo[2,1-f][1,2,4]triazin-7-yl)-5-((((4-(tert-butyl)phenoxy)(((S)-1-oxo-1-(spiro[3.4]octan-2-yloxy)propan-2-yl)amino)phosphoryl)oxy)methyl)-2-cyanotetrahydrofuran-3,4-diyl Diacetate] was tested, and the EC50 was 52.2 nM.
`CCC(=O)O[C@H]1[C@@H](OC(=O)CC)[C@](C#N)(c2ccc3c(N)ncnn23)O[C@@H]1COP(=O)(N[C@@H](C)C(=O)OC1CC2(CCCC2)C1)Oc1ccc(C(C)(C)C)cc1` (stereo partly drawn) [Example 99b, (2R,3R,4R,5R)-2-(4-aminopyrrolo[2,1-f][1,2,4]triazin-7-yl)-5-((((4-(tert-butyl)phenoxy)(((S)-1-oxo-1-(spiro[3.4]octan-2-yloxy)propan-2-yl)amino)phosphoryl)oxy)methyl)-2-cyanotetrahydrofuran-3,4-diyl Dipropionate] was tested, and the EC50 was 66.9 nM.
In the case of `CC(C)C(=O)O[C@H]1[C@@H](OC(=O)C(C)C)[C@](C#N)(c2ccc3c(N)ncnn23)O[C@@H]1COP(=O)(N[C@@H](C)C(=O)OC1CC2(CCCC2)C1)Oc1ccc(C(C)(C)C)cc1` (stereo partly drawn) [Example 100b, (2R,3R,4R,5R)-2-(4-aminopyrrolo[2,1-f][1,2,4]triazin-7-yl)-5-((((4-(tert-butyl)phenoxy)(((S)-1-oxo-1-(spiro[3.4]octan-2-yloxy)propan-2-yl)amino)phosphoryl)oxy)methyl)-2-cyanotetrahydrofuran-3,4-diyl bis(2-methylpropanoate)], the EC50 is reported as 95.5 nM.
`C[C@H](NP(=O)(OC[C@H]1O[C@@](C#N)(c2ccc3c(N)ncnn23)[C@H](O)[C@@H]1O)Oc1ccc(C(C)(C)C)cc1)C(=O)OCC1CC1` (stereo partly drawn) [Example 101b, Cyclopropyl methyl ((((2R,3S,4R,5R)-5-(4-aminopyrrolo[2,1-f][1,2,4]triazin-7-yl)-5-cyano-3,4-dihydroxytetrahydrofuran-2-yl)methoxy)(4-(tert-butyl)phenoxy)phosphoryl)-L-alaninate] was tested, and the EC50 was 79.2 nM.
`CCC(=O)O[C@H]1[C@@H](OC(=O)CC)[C@](C#N)(c2ccc3c(N)ncnn23)O[C@@H]1COP(=O)(N[C@@H](C)C(=O)OCCC(C)(C)CC)Oc1ccccc1` (stereo partly drawn) [Example 105b, (2R,3R,4R,5R)-2-(4-aminopyrrolo[2,1-f][1,2,4]triazin-7-yl)-2-cyano-5-((((((S)-1-((3,3-dimethylpentyl)oxy)-1-oxopropan-2-yl)amino)(phenoxy)phosphoryl)oxy)methyl)tetrahydrofuran-3,4-diyl Dipropionate] gave an EC50 of 60.7 nM.

Same assay, conditions: human respiratory syncytial virus, HEp-2, 96 h, HEp-2 cells, RSV A2, MOI=4, 4 days, Table 3
Compound `C[C@H](NP(=O)(OC[C@H]1O[C@@](C#N)(c2ccc3c(N)ncnn23)[C@H](O)[C@@H]1O)Oc1ccc(C(C)(C)C)cc1)C(=O)OC1CC2(CCCC2)C1` (stereo partly drawn) [Example 97a, Spiro[3.4]octan-2-yl ((((2R,3S,4R,5R)-5-(4-aminopyrrolo[2,1-f][1,2,4]triazin-7-yl)-5-cyano-3,4-dihydroxytetrahydrofuran-2-yl)methoxy)(4-(tert-butyl)phenoxy)phosphoryl)-L-alaninate] has an EC50 of 103 nM.
With `CCC(=O)O[C@H]1[C@@H](OC(=O)CC)[C@](C#N)(c2ccc3c(N)ncnn23)O[C@@H]1COP(=O)(N[C@@H](C)C(=O)OC1CC2(CCCC2)C1)Oc1ccc(C(C)(C)C)cc1` (stereo partly drawn) [Example 99a, (2R,3R,4R,5R)-2-(4-aminopyrrolo[2,1-f][1,2,4]triazin-7-yl)-5-((((4-(tert-butyl)phenoxy)(((S)-1-oxo-1-(spiro[3.4]octan-2-yloxy)propan-2-yl)amino)phosphoryl)oxy)methyl)-2-cyanotetrahydrofuran-3,4-diyl Dipropionate] the EC50 was 81.7 nM.
`CC(C)C(=O)O[C@H]1[C@@H](OC(=O)C(C)C)[C@](C#N)(c2ccc3c(N)ncnn23)O[C@@H]1COP(=O)(N[C@@H](C)C(=O)OC1CC2(CCCC2)C1)Oc1ccc(C(C)(C)C)cc1` (stereo partly drawn) [Example 100a, (2R,3R,4R,5R)-2-(4-aminopyrrolo[2,1-f][1,2,4]triazin-7-yl)-5-((((4-(tert-butyl)phenoxy)(((S)-1-oxo-1-(spiro[3.4]octan-2-yloxy)propan-2-yl)amino)phosphoryl)oxy)methyl)-2-cyanotetrahydrofuran-3,4-diyl bis(2-methylpropanoate)] was tested, and the EC50 was 111 nM.
In the case of `COC(C)(C)COC(=O)[C@H](C)NP(=O)(OC[C@H]1O[C@@](C#N)(c2ccc3c(N)ncnn23)[C@H](O)[C@@H]1O)Oc1cccc2ccccc12` (stereo partly drawn) [Example 128, 2-methoxy-2-methylpropyl ((((2R,3S,4R,5R)-5-(4-aminopyrrolo[2,1-f][1,2,4]triazin-7-yl)-5-cyano-3,4-dihydroxytetrahydrofuran-2-yl)methoxy)(naphthalen-1-yloxy)phosphoryl)-L-alaninate], the EC50 is reported as 525 nM.
For `CCC(CC)COC(=O)[C@H](C)NP(=O)(OC[C@H]1O[C@@](C#N)(c2ccc3c(N)ncnn23)[C@H](O)[C@@H]1O)Oc1ccc2c(c1)CCCC2` (stereo partly drawn) [Example 129, 2-ethylbutyl ((((2R,3S,4R,5R)-5-(4-aminopyrrolo[2,1-f][1,2,4]triazin-7-yl)-5-cyano-3,4-dihydroxytetrahydrofuran-2-yl)methoxy)((5,6,7,8-tetrahydronaphthalen-2-yl)oxy)phosphoryl)-L-alaninate], the EC50 was 362 nM.
`CCC(=O)O[C@H]1[C@@H](OC(=O)CC)[C@](C#N)(c2ccc3c(N)ncnn23)O[C@@H]1COP(=O)(N[C@@H](C)C(=O)OCC(C)(C)OC)Oc1ccc(C(C)(C)C)cc1` (stereo partly drawn) [Example 130, (2R,3R,4R,5R)-2-(4-aminopyrrolo[2,1-f][1,2,4]triazin-7-yl)-5-((((4-(tert-butyl)phenoxy)(((S)-1-(2-methoxy-2-methylpropoxy)-1-oxopropan-2-yl)amino)phosphoryl)oxy)methyl)-2-cyanotetrahydrofuran-3,4-diyl Dipropionate] showed an EC50 of 52.8 nM.
For `COC(C)(C)COC(=O)[C@H](C)NP(=O)(OC[C@H]1O[C@@](C#N)(c2ccc3c(N)ncnn23)[C@H](OC(C)=O)[C@@H]1OC(C)=O)Oc1ccc(C(C)(C)C)cc1` (stereo partly drawn) [Example 131, (2R,3R,4R,5R)-2-(4-aminopyrrolo[2,1-f][1,2,4]triazin-7-yl)-5-((((4-(tert-butyl)phenoxy)(((S)-1-(2-methoxy-2-methylpropoxy)-1-oxopropan-2-yl)amino)phosphoryl)oxy)methyl)-2-cyanotetrahydrofuran-3,4-diyl Diacetate], the EC50 was 56.2 nM.
`CCC(CC)COC(=O)[C@H](C)NP(=O)(OC[C@H]1O[C@@](C#N)(c2ccc3c(N)ncnn23)[C@H](OC(=O)C(C)C)[C@@H]1OC(=O)C(C)C)Oc1ccc2c(c1)CCCC2` (stereo partly drawn) [Example 132, (2R,3R,4R,5R)-2-(4-aminopyrrolo[2,1-f][1,2,4]triazin-7-yl)-2-cyano-5-((((((S)-1-(2-ethylbutoxy)-1-oxopropan-2-yl)amino)((5,6,7,8-tetrahydronaphthalen-2-yl)oxy)phosphoryl)oxy)methyl) tetrahydrofuran-3,4-diyl bis(2-methylpropanoate)] gave an EC50 of 126 nM.
`CCC(=O)O[C@H]1[C@@H](OC(=O)CC)[C@](C#N)(c2ccc3c(N)ncnn23)O[C@@H]1COP(=O)(N[C@@H](C)C(=O)OCC1CCC1)Oc1ccccc1` (stereo partly drawn) [Example 134, (2R,3R,4R,5R)-2-(4-aminopyrrolo[2,1-f][1,2,4]triazin-7-yl)-2-cyano-5-((((((S)-1-(cyclobutylmethoxy)-1-oxopropan-2-yl)amino)(phenoxy)phosphoryl)oxy)methyl)tetrahydrofuran-3,4-diyl Dipropionate] was tested, and the EC50 was 93.8 nM.
`CC(C)COC(=O)[C@H](C)NP(=O)(OC[C@H]1O[C@@](C#N)(c2ccc3c(N)ncnn23)[C@H](OC(=O)CC(C)C)[C@@H]1OC(=O)CC(C)C)Oc1ccc(C(C)(C)C)cc1` (stereo partly drawn) [Example 139, (2R,3R,4R,5R)-2-(4-aminopyrrolo[2,1-f][1,2,4]triazin-7-yl)-5-((((4-(tert-butyl)phenoxy)(((S)-1-isobutoxy-1-oxopropan-2-yl)amino)phosphoryl)oxy)methyl)-2-cyanotetrahydrofuran-3,4-diyl bis(3-methylbutanoate)] was tested, and the EC50 was 194 nM.
`CCC(CC)COC(=O)[C@H](C)NP(=O)(OC[C@H]1O[C@@](C#N)(c2ccc3c(N)ncnn23)[C@H](O)[C@@H]1O)Oc1ccc(OC2CCCCC2)cc1` (stereo partly drawn) [Example 140, 2-ethylbutyl ((((2R,3S,4R,5R)-5-(4-aminopyrrolo[2,1-f][1,2,4]triazin-7-yl)-5-cyano-3,4-dihydroxytetrahydrofuran-2-yl)methoxy)(4-(cyclohexyloxy)phenoxy)phosphoryl)-L-alaninate] gave an EC50 of 302 nM.
In the case of `COCCOC(=O)[C@H](C)NP(=O)(OC[C@H]1O[C@@](C#N)(c2ccc3c(N)ncnn23)[C@H](O)[C@@H]1O)Oc1ccc(C(C)(C)C)cc1` (stereo partly drawn) [Example 141, 2-methoxyethyl ((((2R,3S,4R,5R)-5-(4-aminopyrrolo[2,1-f][1,2,4]triazin-7-yl)-5-cyano-3,4-dihydroxytetrahydrofuran-2-yl)methoxy)(4-(tert-butyl)phenoxy)phosphoryl)-L-alaninate], the EC50 is reported as 305 nM.
For `C[C@H](NP(=O)(OC[C@H]1O[C@@](C#N)(c2ccc3c(N)ncnn23)[C@H](O)[C@@H]1O)Oc1ccc(C(C)(C)C)cc1)C(=O)OC1CCCCC1` (stereo partly drawn) [Example 142, cyclohexyl ((((2R,3S,4R,5R)-5-(4-aminopyrrolo[2,1-f][1,2,4]triazin-7-yl)-5-cyano-3,4-dihydroxytetrahydrofuran-2-yl)methoxy)(4-(tert-butyl)phenoxy)phosphoryl)-L-alaninate], the EC50 was 73.5 nM.
